Positions count from the first letter of the chain named.
How the values were obtained:
Type in all cases: biochemical
WT IDH1 [1] = target: T1, WT IDH1 (Homo sapiens, UniProt O75874); test: Absorbance assay, substrate activity in the absence of DL-isocitrate; details: no DL-isocitrate; […] test compound, 75 μM NADP+, 2.0 nM WT IDH1; compared to DL-isocitrate
T1 construct: made in house; host or cells: Escherichia coli BL21(DE3) pLyS
Method in brief: (§1)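 Compound was added to all wells at once with a multichannel pipettor. Reagent was then dispensed to start the reaction. Every condition was done in four technical replicates.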

WT IDH2 [2] = target: T2, WT IDH2 (Homo sapiens, UniProt P48735); test: as above; details: no DL-isocitrate; […] test compound, 75 μM NADP+, 2.0 nM WT IDH2; compared to DL-isocitrate
T2 construct: made in house; host or cells: Sf21 insect cells (cell pellets prepared at Evotec)
T2 sequence (P48735 40-452): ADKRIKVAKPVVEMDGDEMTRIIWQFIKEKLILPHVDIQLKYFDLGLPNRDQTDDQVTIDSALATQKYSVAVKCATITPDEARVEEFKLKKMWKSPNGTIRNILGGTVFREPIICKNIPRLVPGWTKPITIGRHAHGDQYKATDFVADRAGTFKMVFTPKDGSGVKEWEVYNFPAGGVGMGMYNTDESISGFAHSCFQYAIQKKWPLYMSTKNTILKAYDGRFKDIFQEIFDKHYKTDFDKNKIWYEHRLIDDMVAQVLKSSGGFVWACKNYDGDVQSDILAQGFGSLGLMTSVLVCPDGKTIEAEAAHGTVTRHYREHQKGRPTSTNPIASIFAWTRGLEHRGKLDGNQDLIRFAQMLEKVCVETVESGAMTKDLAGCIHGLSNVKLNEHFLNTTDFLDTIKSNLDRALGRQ
Method in brief: as §1

R132H IDH1 [3] = target: T3, R132H IDH1 (Homo sapiens, UniProt O75874, R132H); test: Absorbance assay (NADPH consumption), substrate turnover in the absence of 2OG; set-up: made in house; host or cells: Escherichia coli BL21(DE3) pLyS; details: no 2OG; […] test compound, 0.03 μM R132H IDH1, 50 μM NADPH; 2OG = 100
T3 sequence (O75874 whole entry R132H): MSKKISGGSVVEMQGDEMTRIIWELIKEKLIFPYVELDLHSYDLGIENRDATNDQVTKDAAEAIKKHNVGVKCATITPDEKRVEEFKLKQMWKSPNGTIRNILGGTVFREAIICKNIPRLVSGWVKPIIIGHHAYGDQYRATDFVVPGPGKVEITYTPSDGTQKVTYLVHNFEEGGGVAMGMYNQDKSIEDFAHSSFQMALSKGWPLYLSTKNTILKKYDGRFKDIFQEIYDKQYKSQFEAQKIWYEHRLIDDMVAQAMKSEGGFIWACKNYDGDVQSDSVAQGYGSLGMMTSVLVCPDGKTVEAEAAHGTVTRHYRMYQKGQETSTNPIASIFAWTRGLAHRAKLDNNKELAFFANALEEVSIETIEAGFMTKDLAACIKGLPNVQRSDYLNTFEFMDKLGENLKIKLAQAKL
Method in brief: as §1

R132H IDH1 [4] = target: T3, R132H IDH1; test: Absorbance assay, variant activity in the presence of equimolar 2OG (inhibition screen); set-up: made in house; host or cells: Escherichia coli BL21(DE3) pLyS; details: […] 2OG and […] test compound, 0.03 μM R132H IDH1, 50 μM NADPH
Method in brief: as §1

R172K IDH2 [5] = target: T4, R172K IDH2 (Homo sapiens, UniProt P48735, R172K); test: Absorbance assay (NADPH consumption), substrate turnover in the absence of 2OG; details: no 2OG; 1.0 mM test compound, 0.03 μM R172K IDH2, 50 μM NADPH; 2OG = 100
T4 construct: made in house; host or cells: Sf21 insect cells (cell pellets prepared at Evotec)
T4 sequence (P48735 40-452 R172K): T2 sequence (P48735 40-452) with R133K
Method in brief: as §1

R140Q IDH2 [6] = target: T5, R140Q IDH2 (Homo sapiens, UniProt P48735, R140Q); test: as above; details: no 2OG; 6.0 mM test compound, 0.03 μM R140Q IDH2, 50 μM NADPH; 2OG = 100
T5 construct: made in house; host or cells: Sf21 insect cells (cell pellets prepared at Evotec)
T5 sequence (P48735 40-452 R140Q): T2 sequence (P48735 40-452) with R101Q
Method in brief: as §1

WT IDH1 [7] = target: T1, WT IDH1; test: Absorbance assay, WT activity in the presence of equimolar DL-isocitrate (inhibition); details: […] isocitrate and […] test compound, 75 μM NADP+, 2.0 nM WT IDH1
Method in brief: as §1

WT IDH2 [8] = target: T2, WT IDH2; test: as above; details: […] isocitrate and […] test compound, 75 μM NADP+, 2.0 nM WT IDH2
Method in brief: as §1

R172K IDH2 [9] = target: T4, R172K IDH2; test: Absorbance assay, variant activity in the presence of equimolar 2OG (inhibition screen); details: for activity [%] (%-substrate conversion after 20 min incubation): 1.0 mM 2OG and 1.0 mM test compound, 0.03 μM R172K IDH2, 50 μM NADPH
Method in brief: as §1

R140Q IDH2 [10] = target: T5, R140Q IDH2; test: as above; details: 6.0 mM 2OG and 6.0 mM test compound, 0.03 μM R140Q IDH2, 50 μM NADPH
Method in brief: as §1

T1 sequence (O75874 whole entry): as the sequence (O75874 whole entry R132H) above, with H132R counted along it

With `O=C(O)CC(S)C(=O)O` (stereo not drawn) [2-mercaptosuccinic acid] the “activity [%] (%-substrate conversion after 20 min incubation)” value (from here on “activity [%]”) (WT IDH1 [1]) was less than 10%, the “activity [%]” value (WT IDH2 [2]) was less than 10% and the “activity [%]” value (R132H IDH1 [3]) was less than 10%. For the same compound, the “activity [%]” value (R132H IDH1 [4]) was 104 ± 4%, the “activity [%]” value (R172K IDH2 [5]) was less than 10% and the “activity [%]” value (R140Q IDH2 [6]) was less than 10%. For the same compound, the “activity [%]” value (WT IDH1 [7]) was 109 ± 4%, the “activity [%]” value (WT IDH2 [8]) was 100 ± 1% and the “activity [%]” value (R172K IDH2 [9]) was 99 ± 4%. For the same compound, the “activity [%]” value (R140Q IDH2 [10]) was 91 ± 5%.
With `O=CC(=O)O` [glyoxylic acid] the “activity [%]” value (WT IDH1 [1]) was less than 10%, the “activity [%]” value (WT IDH2 [2]) was less than 10% and the “activity [%]” value (R132H IDH1 [3]) was less than 10%. The “activity [%]” value (R132H IDH1 [4]) was 108 ± 5%, the “activity [%]” value (R172K IDH2 [5]) was less than 10% and the “activity [%]” value (R140Q IDH2 [6]) was less than 10%. For the same compound, the “activity [%]” value (WT IDH1 [7]) was 104 ± 2%, the “activity [%]” value (WT IDH2 [8]) was 99 ± 2% and the “activity [%]” value (R172K IDH2 [9]) was 99 ± 6%. For the same compound, the “activity [%]” value (R140Q IDH2 [10]) was 105 ± 6%.
In the case of `O=C(O)C(=O)CS` [mercaptopyruvic acid], the “activity [%]” value (WT IDH1 [1]) is reported as less than 10%, the “activity [%]” value (WT IDH2 [2]) is reported as less than 10% and the “activity [%]” value (R132H IDH1 [3]) is reported as less than 10%. For the same compound, the “activity [%]” value (R132H IDH1 [4]) was 51 ± 5%, the “activity [%]” value (R172K IDH2 [5]) was less than 10% and the “activity [%]” value (R140Q IDH2 [6]) was less than 10%. For the same compound, the “activity [%]” value (WT IDH1 [7]) was 88 ± 1%, the “activity [%]” value (WT IDH2 [8]) was 85 ± 1% and the “activity [%]” value (R172K IDH2 [9]) was 54 ± 1%. The inhibition (R172K IDH2 [9]; equimolar 2OG (1.0 mM)) was ~ 50% and the “activity [%]” value (R140Q IDH2 [10]) was 91 ± 5%.
In the case of `O=C(O)[C@@H]1CCCN1` [L-proline], the “activity [%]” value (WT IDH1 [1]) is reported as less than 10%, the “activity [%]” value (WT IDH2 [2]) is reported as less than 10% and the “activity [%]” value (R132H IDH1 [3]) is reported as less than 10%. For the same compound, the “activity [%]” value (R132H IDH1 [4]) was 98 ± 1%, the “activity [%]” value (R172K IDH2 [5]) was less than 10% and the “activity [%]” value (R140Q IDH2 [6]) was less than 10%. The “activity [%]” value (WT IDH1 [7]) was 102 ± 1%, the “activity [%]” value (WT IDH2 [8]) was 98 ± 1% and the “activity [%]” value (R172K IDH2 [9]) was 98 ± 4%. For the same compound, the “activity [%]” value (R140Q IDH2 [10]) was 106 ± 2%.
In the case of `CC(=O)C(=O)O` [pyruvic acid], the “activity [%]” value (WT IDH1 [1]) is reported as less than 10%, the “activity [%]” value (WT IDH2 [2]) is reported as less than 10% and the “activity [%]” value (R132H IDH1 [3]) is reported as less than 10%. The “activity [%]” value (R132H IDH1 [4]) was 112 ± 8%, the “activity [%]” value (R172K IDH2 [5]) was less than 10% and the “activity [%]” value (R140Q IDH2 [6]) was less than 10%. The “activity [%]” value (WT IDH1 [7]) was 111 ± 6%, the “activity [%]” value (WT IDH2 [8]) was 97 ± 5% and the “activity [%]” value (R172K IDH2 [9]) was 114 ± 12%. For the same compound, the “activity [%]” value (R140Q IDH2 [10]) was 108 ± 4%.

From publication PMC9939733 (The Journal of Biological Chemistry, 2023)
